# In ChEMBL document CHEMBL5344441, “Discovery and Preclinical Pharmacology of NX-2127, an Orally Bioavailable Degrader of Bruton's Tyrosine Kinase with Immunomodulatory Activity for the Treatment of Patients with B Cell Malignancies” (J Med Chem, 2024):
# Columns and labels:
# [1] = target: T1, Protein cereblon/Tyrosine-protein kinase BTK (Homo sapiens, UniProt Q06187+Q96SW2); test: PROTAC activity at CRBN/BTK in human Ramos cells assessed as degradation of BTK protein incubated for 4 hrs by HTRF assay; assay type: cell-based
# Target sequence in this assay (Q06187 whole entry): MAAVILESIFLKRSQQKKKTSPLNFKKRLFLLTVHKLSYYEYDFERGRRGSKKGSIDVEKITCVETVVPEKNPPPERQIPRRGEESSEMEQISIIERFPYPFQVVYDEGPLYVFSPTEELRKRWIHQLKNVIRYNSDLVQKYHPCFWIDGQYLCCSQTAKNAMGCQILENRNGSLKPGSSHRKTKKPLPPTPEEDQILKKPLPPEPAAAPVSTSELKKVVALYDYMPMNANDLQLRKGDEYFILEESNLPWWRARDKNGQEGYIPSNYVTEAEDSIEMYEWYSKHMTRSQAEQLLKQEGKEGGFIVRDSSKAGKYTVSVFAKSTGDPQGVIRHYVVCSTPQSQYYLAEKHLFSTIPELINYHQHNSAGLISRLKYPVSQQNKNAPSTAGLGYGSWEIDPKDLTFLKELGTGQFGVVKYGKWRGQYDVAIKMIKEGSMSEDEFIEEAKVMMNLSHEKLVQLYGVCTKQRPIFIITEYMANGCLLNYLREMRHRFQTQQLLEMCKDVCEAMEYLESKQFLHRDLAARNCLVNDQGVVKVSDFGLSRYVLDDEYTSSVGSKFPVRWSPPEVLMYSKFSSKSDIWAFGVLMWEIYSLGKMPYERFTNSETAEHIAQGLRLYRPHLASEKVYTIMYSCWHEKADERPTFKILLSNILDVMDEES
# Target sequence in this assay (Q96SW2 whole entry): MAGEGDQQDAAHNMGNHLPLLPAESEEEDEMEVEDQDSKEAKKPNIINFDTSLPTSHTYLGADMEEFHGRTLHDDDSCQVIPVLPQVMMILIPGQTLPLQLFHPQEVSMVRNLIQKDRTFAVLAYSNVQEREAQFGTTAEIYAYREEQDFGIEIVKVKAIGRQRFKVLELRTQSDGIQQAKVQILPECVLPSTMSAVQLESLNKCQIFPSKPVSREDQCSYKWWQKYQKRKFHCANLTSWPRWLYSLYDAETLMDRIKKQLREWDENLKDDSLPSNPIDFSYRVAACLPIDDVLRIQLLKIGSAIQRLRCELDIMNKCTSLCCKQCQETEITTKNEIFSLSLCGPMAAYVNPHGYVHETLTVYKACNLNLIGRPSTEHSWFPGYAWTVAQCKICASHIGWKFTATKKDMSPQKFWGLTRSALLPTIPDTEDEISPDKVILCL
# [2] = target: T2, Protein cereblon/Zinc finger protein Aiolos (Homo sapiens, UniProt Q96SW2+Q9UKT9); test: PROTAC activity at CRBN/IKZF3 in human T cell assessed as maximal degradation of IKZF3 protein incubated for 24 hrs by flow cytometry relative to control; assay type: cell-based
# Target sequence in this assay (Q96SW2 whole entry, looked up): as the sequence (Q96SW2 whole entry) above
# Target sequence in this assay (Q9UKT9 whole entry, looked up): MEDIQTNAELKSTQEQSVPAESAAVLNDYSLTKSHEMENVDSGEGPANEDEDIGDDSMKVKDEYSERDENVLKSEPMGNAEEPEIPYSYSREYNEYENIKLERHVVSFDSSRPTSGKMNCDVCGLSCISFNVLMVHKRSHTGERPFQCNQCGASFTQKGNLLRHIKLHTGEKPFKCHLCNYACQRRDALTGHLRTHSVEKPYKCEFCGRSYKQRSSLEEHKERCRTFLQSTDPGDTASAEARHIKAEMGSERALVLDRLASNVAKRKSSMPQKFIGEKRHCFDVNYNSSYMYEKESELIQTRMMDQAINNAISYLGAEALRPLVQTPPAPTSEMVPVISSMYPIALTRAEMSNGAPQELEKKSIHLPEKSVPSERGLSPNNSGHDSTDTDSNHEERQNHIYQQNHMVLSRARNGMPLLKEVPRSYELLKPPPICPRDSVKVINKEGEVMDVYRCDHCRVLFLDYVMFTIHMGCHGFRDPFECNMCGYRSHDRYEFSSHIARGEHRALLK
# [3] = target: T1, Protein cereblon/Tyrosine-protein kinase BTK; test: PROTAC activity at CRBN/BTK in human Ramos cells assessed as maximal degradation of BTK protein incubated for 4 hrs by HTRF assay relative to control; assay type: cell-based
# Target sequence in this assay (Q06187 2-659 limits assumed): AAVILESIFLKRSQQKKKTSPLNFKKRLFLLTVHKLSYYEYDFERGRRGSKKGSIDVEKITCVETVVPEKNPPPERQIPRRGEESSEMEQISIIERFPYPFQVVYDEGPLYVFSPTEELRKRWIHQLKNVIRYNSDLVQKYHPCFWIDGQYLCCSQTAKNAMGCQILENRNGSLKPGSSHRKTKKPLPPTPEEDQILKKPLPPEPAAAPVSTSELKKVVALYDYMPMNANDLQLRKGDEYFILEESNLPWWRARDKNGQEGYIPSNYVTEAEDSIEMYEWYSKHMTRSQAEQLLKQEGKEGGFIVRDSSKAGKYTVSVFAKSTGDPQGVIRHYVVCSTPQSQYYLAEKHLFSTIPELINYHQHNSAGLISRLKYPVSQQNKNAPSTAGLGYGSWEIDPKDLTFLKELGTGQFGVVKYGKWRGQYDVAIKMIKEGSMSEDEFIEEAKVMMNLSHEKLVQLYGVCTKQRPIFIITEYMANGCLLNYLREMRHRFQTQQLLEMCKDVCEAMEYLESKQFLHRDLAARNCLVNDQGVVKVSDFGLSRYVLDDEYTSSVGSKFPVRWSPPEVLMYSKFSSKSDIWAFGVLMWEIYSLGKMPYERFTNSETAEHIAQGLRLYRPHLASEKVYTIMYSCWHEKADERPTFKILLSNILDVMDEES
# Target sequence in this assay (Q96SW2 whole entry partner): as the sequence (Q96SW2 whole entry) above
# [4] = target: T2, Protein cereblon/Zinc finger protein Aiolos; test: PROTAC activity at CRBN/IKZF3 in human T cell assessed as degradation of IKZF3 protein incubated for 24 hrs by flow cytometry; assay type: cell-based
# Target sequence in this assay (Q96SW2 whole entry): as above
# Target sequence in this assay (Q9UKT9 whole entry): as the sequence (Q9UKT9 whole entry, looked up) above
# [5] = target: T3, Protein cereblon/Tyrosine-protein kinase BTK (Mus musculus) (UniProt P35991+Q8C7D2); test: In vivo protac activity at CRBN/BTK in BALB/c mouse assessed as remaining BTK protein in blood at 3 mg/kg,po administration measured after 6 hrs by flow cytomtery relative to control; assay type: functional, organism-based
# [6] = target: T1, Protein cereblon/Tyrosine-protein kinase BTK; test: PROTAC activity at CRBN/BTK in human TMD8 cells assessed as degradation of BTK protein incubated for 4 hrs by HTRF assay; assay type: cell-based
# Target sequence in this assay (Q06187 whole entry): as the sequence (Q06187 whole entry) above
# Target sequence in this assay (Q96SW2 whole entry): as the sequence (Q96SW2 whole entry) above
# [7] = target: T1, Protein cereblon/Tyrosine-protein kinase BTK; test: PROTAC activity at CRBN/BTK in human TMD8 cells assessed as maximal degradation of BTK protein incubated for 4 hrs by HTRF assay relative to control; assay type: cell-based
# Target sequence in this assay (Q06187 2-659 limits assumed): as the sequence (Q06187 2-659 limits assumed) above
# Target sequence in this assay (Q96SW2 whole entry partner): as the sequence (Q96SW2 whole entry) above
# [8] = Apparent permeability across apical to basolateral side in human Caco-2 cells; assay type: ADME, cell-based
# [9] = Ratio of drug concentration in mouse blood to plasma; assay type: ADME, cell-free; settings: whole blood
# [10] = target: T3, Protein cereblon/Tyrosine-protein kinase BTK (Mus musculus); test: In vivo protac activity at CRBN/BTK in BALB/c mouse assessed as remaining BTK protein in splenocyte at 3 mg/kg,po administration measured after 6 hrs by HTRF assay relative to control; assay type: functional, organism-based
# [11] = Plasma protein binding in cynomolgus monkey; assay type: ADME, cell-free, Macaca fascicularis; settings: read-out: PPB (converted)
# [12] = target: Protein cereblon/Tyrosine-protein kinase BTK (Homo sapiens, UniProt Q06187+Q96SW2, C481S); test: PROTAC activity at CRBN/BTK C481S mutant in human TMD8 cells assessed as degradation of BTK protein incubated for 4 hrs by HTRF assay; assay type: cell-based
# [13] = Oral bioavailability in mouse at 10 mg/kg; assay type: ADME, organism-based; settings: in vivo
# [14] = Ratio of drug concentration in cynomolgus monkey blood to plasma; assay type: ADME, cell-free, Macaca fascicularis; settings: whole blood
# [15] = target: Cereblon/Ikaros (Homo sapiens, UniProt Q96SW2+Q13422); test: PROTAC activity at CRBN/IKZF1 in human T cell assessed as degradation of IKZF1 protein incubated for 24 hrs by flow cytometry; assay type: cell-based
# [16] = AUC in mouse at 10 mg/kg,po; assay type: ADME, organism-based; parameters: dose 10 mg/kg, route po; settings: in vivo
# [17] = Plasma protein binding in dog; assay type: ADME, cell-free, Canis lupus familiaris; settings: read-out: PPB (converted)
# [18] = Plasma protein binding in rat; assay type: ADME, cell-free; settings: read-out: PPB
# [19] = Aqueous solubility of the compound in PBS at pH 7.4; assay type: physicochemical
# [20] = Ratio of drug concentration in human blood to plasma; assay type: ADME, cell-free; settings: whole blood
# [21] = Ratio of drug concentration in dog blood to plasma; assay type: ADME, cell-free, Canis lupus familiaris; settings: whole blood
# [22] = Plasma protein binding in human; assay type: ADME, cell-free; settings: read-out: PPB (converted)
# [23] = Plasma protein binding in mouse; assay type: ADME, cell-free; settings: read-out: PPB
# [24] = Ratio of drug concentration in rat blood to plasma; assay type: ADME, cell-free; settings: whole blood
# [25] = system: Protein cereblon/Tyrosine-protein kinase BTK (Homo sapiens), Q06187+Q96SW2 [C481S]; test: PROTAC activity at CRBN/BTK C481S mutant in human TMD8 cells assessed as maximal degradation of BTK protein incubated for 4 hrs by HTRF assay relative to control; assay type: cell-based
# [26] = Efflux ratio of apparent permeability in human Caco-2 cells; assay type: ADME, cell-based
# [27] = Lipophilicity, logD of compound at pH 7.4; assay type: physicochemical; settings: buffer
# [28] = Observed clearance in mouse at 1 mg/kg,iv; assay type: ADME, organism-based; settings: in vivo
# T3 sequence (P35991 whole entry, looked up): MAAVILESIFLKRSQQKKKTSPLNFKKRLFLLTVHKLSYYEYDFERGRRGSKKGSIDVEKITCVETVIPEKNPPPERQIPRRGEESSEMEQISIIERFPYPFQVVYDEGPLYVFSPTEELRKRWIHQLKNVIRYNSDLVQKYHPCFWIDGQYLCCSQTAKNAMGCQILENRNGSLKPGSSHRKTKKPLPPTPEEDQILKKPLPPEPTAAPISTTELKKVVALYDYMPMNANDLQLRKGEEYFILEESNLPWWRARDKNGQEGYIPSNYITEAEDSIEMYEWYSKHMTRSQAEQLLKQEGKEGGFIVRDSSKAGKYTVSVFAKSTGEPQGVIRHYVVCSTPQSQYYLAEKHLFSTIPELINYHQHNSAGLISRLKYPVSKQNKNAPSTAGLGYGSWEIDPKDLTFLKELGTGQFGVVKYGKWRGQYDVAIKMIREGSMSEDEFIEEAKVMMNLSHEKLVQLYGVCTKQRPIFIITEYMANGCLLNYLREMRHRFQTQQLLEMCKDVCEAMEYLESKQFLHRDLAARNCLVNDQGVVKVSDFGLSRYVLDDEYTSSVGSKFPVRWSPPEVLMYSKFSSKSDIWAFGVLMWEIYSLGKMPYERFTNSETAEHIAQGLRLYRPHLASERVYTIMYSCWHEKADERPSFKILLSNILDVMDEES
# T3 sequence (Q8C7D2 whole entry, looked up): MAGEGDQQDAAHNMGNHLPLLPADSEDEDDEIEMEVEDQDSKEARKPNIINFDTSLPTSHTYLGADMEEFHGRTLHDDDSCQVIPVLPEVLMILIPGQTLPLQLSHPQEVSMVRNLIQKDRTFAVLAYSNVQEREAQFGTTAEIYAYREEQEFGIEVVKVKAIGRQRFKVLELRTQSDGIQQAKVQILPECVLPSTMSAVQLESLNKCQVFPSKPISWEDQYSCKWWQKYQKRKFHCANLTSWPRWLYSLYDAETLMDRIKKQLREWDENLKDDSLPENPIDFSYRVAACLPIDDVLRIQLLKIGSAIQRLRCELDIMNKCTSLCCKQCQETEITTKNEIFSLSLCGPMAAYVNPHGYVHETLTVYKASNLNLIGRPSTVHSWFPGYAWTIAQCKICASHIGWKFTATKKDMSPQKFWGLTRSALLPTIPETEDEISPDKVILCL
# Chain of Protein cereblon/Tyrosine-protein kinase BTK (Homo sapiens, UniProt Q06187+Q96SW2, C481S) (Q06187 2-659 C481S limits assumed, stated change not applied): as the sequence (Q06187 2-659 limits assumed) above, with C480S counted along it
# Chain of Protein cereblon/Tyrosine-protein kinase BTK (Homo sapiens, UniProt Q06187+Q96SW2, C481S) (Q96SW2 whole entry, stated change not applied): as the sequence (Q96SW2 whole entry) above
# Chain of Cereblon/Ikaros (Q96SW2 whole entry): as above
# Chain of Cereblon/Ikaros (Q13422 whole entry): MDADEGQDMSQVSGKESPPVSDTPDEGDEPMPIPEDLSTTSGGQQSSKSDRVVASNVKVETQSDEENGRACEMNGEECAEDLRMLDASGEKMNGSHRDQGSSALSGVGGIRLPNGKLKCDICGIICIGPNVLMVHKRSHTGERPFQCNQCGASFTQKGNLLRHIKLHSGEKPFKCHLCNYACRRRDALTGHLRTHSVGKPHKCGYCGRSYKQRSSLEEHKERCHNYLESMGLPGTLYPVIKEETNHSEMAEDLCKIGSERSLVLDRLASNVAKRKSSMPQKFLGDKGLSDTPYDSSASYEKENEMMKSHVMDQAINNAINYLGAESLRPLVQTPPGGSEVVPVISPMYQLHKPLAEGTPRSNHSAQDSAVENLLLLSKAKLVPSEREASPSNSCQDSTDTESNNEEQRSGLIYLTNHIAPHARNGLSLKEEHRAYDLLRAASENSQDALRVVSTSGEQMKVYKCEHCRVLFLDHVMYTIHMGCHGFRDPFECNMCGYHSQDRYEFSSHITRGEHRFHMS
structure (smiles),measurement,setting,value
CN1CCN([C@@H]2CCCN(c3cnc(C(N)=O)c(Nc4ccc(C5CCN(C(=O)CCOCCNc6cccc7c6C(=O)N(C6CCC(=O)NC6=O)C7=O)CC5)cc4)n3)C2)C1=O (stereo partly specified),DC50,[1],6.3 nM
same,Emax,[2],99%
same,Emax,[3],80%
CN1CCN([C@@H]2CCCN(c3cnc(C(N)=O)c(Nc4ccc(C5CCN(CCCNc6cccc7c6C(=O)N(C6CCC(=O)NC6=O)C7=O)CC5)cc4)n3)C2)C1=O (stereo partly specified),DC50,[1],2.4 nM
same,Emax,[2],87%
same,DC50,[4],11 nM
same,Emax,[3],95%
CN1CCN([C@@H]2CCCN(c3cnc(C(N)=O)c(Nc4ccc5c(c4)CCN(CC4CCN(c6ccc7c(c6)C(=O)N(C6CCC(=O)NC6=O)C7=O)CC4)C5)n3)C2)C1=O (stereo partly specified),DC50,[1],2.4 nM
same,Activity,[5],68%
same,DC50,[6],1.2 nM
same,Emax,[2],86%
same,DC50,[4],14 nM
same,Emax,[3],95%
same,Emax,[7],96%
CN1CCN([C@@H]2CCCN(c3cnc(C(N)=O)c(Nc4ccc(N5CC6(C5)CN(c5ccc7c(c5)C(=O)N(C5CCC(=O)NC5=O)C7=O)C6)cc4)n3)C2)C1=O (stereo partly specified),DC50,[1],0.9 nM
same,DC50,[6],0.8 nM
same,Emax,[2],83%
same,DC50,[4],14 nM
same,Emax,[3],94%
same,Emax,[7],97%
CN1CCN([C@@H]2CCCN(c3cnc(C(N)=O)c(Nc4ccc(C5CCN(C[C@H]6CC[C@@H](Nc7cccc8c7C(=O)N(C7CCC(=O)NC7=O)C8=O)CC6)CC5)cc4)n3)C2)C1=O (stereo partly specified),DC50,[1],7 nM
same,Emax,[2],31%
same,DC50,[4],> 2000 nM
same,Emax,[3],88%
CN1CCN([C@@H]2CCCN(c3cnc(C(N)=O)c(Nc4ccc(N5CCC6(CC5)CN(c5cccc7c5C(=O)N(C5CCC(=O)NC5=O)C7=O)C6)cc4)n3)C2)C1=O (stereo partly specified),Emax,[7],50%
CN1CCN([C@@H]2CCCN(c3cnc(C(N)=O)c(Nc4ccc(N5CCC6(CCN(c7ccc8c(c7)C(=O)N(C7CCC(=O)NC7=O)C8=O)CC6)CC5)nc4)n3)C2)C1=O (stereo partly specified),Activity,[5],96%
same,DC50,[6],4.3 nM
same,Emax,[7],94%
CN1CCN([C@@H]2CCCN(c3cnc(C(N)=O)c(Nc4ccc(C5CCN(C[C@H]6CCN(c7ccc8c(c7)C(=O)N(C7CCC(=O)NC7=O)C8=O)C6)CC5)cc4)n3)C2)C1=O (stereo partly specified),Papp A→B,[8],< 0.01 ×10⁻⁶ cm/s
same,blood plasma ratio,[9],1.1
same,Activity,[10],32%
same,fraction unbound,[11],0.025
same,DC50,[12],1.5 nM
same,bioavailability,[13],5.4%
same,blood plasma ratio,[14],11
same,DC50,[1],0.5 nM
same,DC50,[15],57 nM
same,AUC,[16],3.6 µM·h
same,Activity,[5],50%
same,fraction unbound,[17],0.031
same,fraction unbound,[18],< 0.015
same,solubility,[19],0.3 µM
same,blood plasma ratio,[20],0.3
same,blood plasma ratio,[21],6
same,fraction unbound,[22],0.066
same,fraction unbound,[23],< 0.015
same,blood plasma ratio,[24],1.3
same,Emax,[25],94.8%
same,DC50,[6],0.35 nM
same,Emax,[2],79%
same,efflux ratio,[26],> 84
same,logD,[27],3.7
same,clearance,[28],3 mL/min/kg
same,Emax,[3],97%
same,Emax,[7],97%
CN1CCN([C@@H]2CCCN(c3cnc(C(N)=O)c(Nc4ccc(C5CCN(C[C@H]6CC[C@H](Nc7cccc8c7C(=O)N(C7CCC(=O)NC7=O)C8=O)CC6)CC5)cc4)n3)C2)C1=O (stereo partly specified),DC50,[1],1.6 nM
same,Emax,[2],85%
same,DC50,[4],40 nM
same,Emax,[3],90%
CN1CCN([C@@H]2CCCN(c3cnc(C(N)=O)c(Nc4ccc(C5CCN(Cc6ccc7c(c6)C(=O)N(C6CCC(=O)NC6=O)C7=O)CC5)cc4)n3)C2)C1=O (stereo partly specified),DC50,[6],17 nM
same,Emax,[7],76%
NC(=O)c1ncc(-c2nccs2)nc1Nc1ccc(C2CCN(C[C@H]3CCN(c4ccc5c(c4)C(=O)N(C4CCC(=O)NC4=O)C5=O)C3)CC2)cc1 (stereo partly specified),Activity,[5],24%
same,DC50,[6],1.7 nM
same,Emax,[7],95%
CN1CCN([C@@H]2CCCN(c3cnc(C(N)=O)c(Nc4ccc(C5CCN(C6CN(c7ccc8c(c7)C(=O)N(C7CCC(=O)NC7=O)C8=O)C6)CC5)cc4)n3)C2)C1=O (stereo partly specified),DC50,[1],1.4 nM
same,Activity,[5],35%
same,DC50,[6],1.2 nM
same,Emax,[2],74%
same,DC50,[4],32 nM
same,Emax,[3],91%
same,Emax,[7],96%
CN1CCN([C@@H]2CCCN(c3cnc(C(N)=O)c(Nc4ccc(C5CN(C6CCN(c7ccc8c(c7)C(=O)N(C7CCC(=O)NC7=O)C8=O)CC6)C5)cc4)n3)C2)C1=O (stereo partly specified),DC50,[1],0.9 nM
same,Activity,[5],26%
same,DC50,[6],0.53 nM
same,Emax,[2],79%
same,DC50,[4],28 nM
same,Emax,[3],95%
same,Emax,[7],96%
CN1CCN([C@@H]2CCCN(c3cnc(C(N)=O)c(Nc4ccc(C5CCN(C[C@H]6CCN(c7ccc8c(c7)C(=O)N(C7CCC(=O)NC7=O)C8=O)C6)CC5)nc4)n3)C2)C1=O (stereo partly specified),Activity,[10],46%
same,DC50,[6],1 nM
same,Emax,[7],96%
